In PubChem BioAssay (NCI):
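Tested at 5 concentrations; 48 h exposure; 96-well plates; endpoints linearly interpolated, else capped at highest concentration. TGI marks complete inhibition of growth.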

Tests used:
Test in all cases: inhibition of tumour cell growth, NCI panel, 48 h
786-0 renal = test system: 786-0 renal
A498 renal = test system: A498 renal
A549 NSCLC = test system: A549 NSCLC
CAKI-1 renal = test system: CAKI-1 renal
DU-145 prostate = test system: DU-145 prostate
HCC-2998 colon = test system: HCC-2998 colon
HCT-15 colon = test system: HCT-15 colon
K-562 leukemia = test system: K-562 leukemia
M14 melanoma = test system: M14 melanoma
MALME-3M melanoma = test system: MALME-3M melanoma
MCF7 breast = test system: MCF7 breast
NCI-H23 lung = test system: NCI-H23 lung
NCI-H522 lung = test system: NCI-H522 lung
OVCAR-8 ovarian = test system: OVCAR-8 ovarian
SF-295 CNS = test system: SF-295 CNS
SK-OV-3 ovarian = test system: SK-OV-3 ovarian
SNB-19 CNS = test system: SNB-19 CNS
T-47D breast = test system: T-47D breast
MDA-MB-435 = test system: MDA-MB-435

SMILES | TGI (786-0 renal) [µM] | TGI (A498 renal) [µM] | TGI (A549 NSCLC) [µM] | TGI (CAKI-1 renal) [µM] | TGI (DU-145 prostate) [µM] | TGI (HCC-2998 colon) [µM] | TGI (HCT-15 colon) [µM] | TGI (K-562 leukemia) [µM] | TGI (M14 melanoma) [µM] | TGI (MALME-3M melanoma) [µM] | TGI (MCF7 breast) [µM] | TGI (NCI-H23 lung) [µM] | TGI (NCI-H522 lung) [µM] | TGI (OVCAR-8 ovarian) [µM] | TGI (SF-295 CNS) [µM] | TGI (SK-OV-3 ovarian) [µM] | TGI (SNB-19 CNS) [µM] | TGI (T-47D breast) [µM] | TGI (MDA-MB-435) [µM]
CCOc1cc2c(OCc3ccccc3)cc3c4cc(OC)c(OC)cc4c[n+](C)c3c2cc1OC | 26.6 | > 76.3 | 24.2 | > 69.4 | 23.2 | 21.6 | > 100 | > 42.6 | 9.73 | 2.18 | 4.44 | 9.1 | 1.43 | 5.6 | > 86.3 | 19.4 | 2.44 | > 100 | –
CCCC(=O)n1[nH]c(=O)n(-c2ccc(Cl)cc2)c1=O | > 100 | – | > 100 | > 100 | > 100 | > 100 | > 100 | > 100 | > 100 | > 100 | > 100 | > 100 | – | > 100 | > 100 | > 100 | > 100 | > 100 | > 100
CC(C)(C)OC(=O)N1CCc2[nH][nH]c(=O)c2C1 | > 100 | > 100 | > 100 | > 100 | > 100 | – | > 100 | > 100 | > 100 | > 100 | > 100 | > 100 | > 100 | > 100 | > 100 | > 100 | > 100 | – | > 100
N#Cc1c(-c2ccc(Cl)cc2)c2c([nH]c1=O)-c1ccccc1SC2 | > 100 | > 100 | > 100 | > 100 | > 100 | – | > 100 | > 100 | > 100 | > 100 | > 100 | > 100 | – | > 100 | > 100 | > 100 | > 100 | – | > 100
COc1ccc(C2C(Cl)C(=O)N2n2cnc3ccccc3c2=O)cc1 (configuration not stated) | > 100 | – | > 100 | > 100 | – | > 100 | > 100 | > 100 | 91.6 | > 100 | – | > 100 | > 100 | > 100 | > 100 | > 100 | > 100 | – | –
COc1cc2cc3c4c(cc(OC)c(OC)c4c2cc1OC)CCN3C(=O)OCCN1CCNCC1 | 23.8 | 27.8 | 34.4 | 28.5 | – | 29.8 | 29.2 | 31.2 | 27.9 | 31 | – | 31.8 | 30.6 | 29.7 | 28.2 | 31.8 | 43.3 | – | –
CN=c1nc2sc3c(c2c(NC(=S)NC)s1)CCCC3 | > 100 | > 100 | – | > 100 | > 100 | > 100 | > 100 | > 100 | – | > 100 | > 100 | > 100 | > 100 | – | > 100 | > 100 | > 100 | – | > 100
